Experimental findings from patent publication US7550453B2, “2-alkoxy-3,4,5-trihydroxy-alkylamides, preparation thereof, compositions containing them and use thereof” (Aventis Pharma SA, priority 2004, dated 2009) are described below.

This test deals with Hep-G2 cells. Briefly: Inhibition of cell proliferation of Hep-G2 cells (intracellular ATP, CellTiterGlo). It counts as cell-based. The note with it: Homo sapiens, HepG2, 72 hours incubation, ATP content, read-out: IC 50 (μM)/HEP G2. How it is done: The antitumoral activity of products 1 to 10 was determined by measuring the inhibition of cell proliferation of Hep-G2 cells. The cells are subcultured in a cell culture medium at a concentration of 1000 cells per well, and incubated for 4 hours at 37° C. and 5% CO2.
Medium used for the Hep-G2 and HCT-116 cell culture: Dubelcco's modified Eagle's medium/Ham mixture F12 (Gibco); NEAA (10%; nonessential amino acids, Gibco); sodium pyruvate (1%, Gibco); L-glutamine (1%, Gibco); fetal calf serum (5%; PAA).
After 4 hours, the test products dissolved in a DMSO/cell culture medium mixture are added at various concentrations and the resulting mixtures are incubated for 72 hours at 37° C. and 5% CO2. The intracellular ATP content was measured using the CellTiterGlo test reagent (Promega).
As to `CO[C@@H](C(=O)N[C@H]1CCCCN(Cc2ccc(-c3ccccc3)cc2)C1=O)[C@H](O)[C@@H](O)[C@H](O)C=NOCc1ccccc1` (racemic) [Ex 10, N—[(S)-1-(biphenyl-4-ylmethyl)-2-oxoperhydro-azepin-3-yl](2R,3R,4S,5S)-6-benzyloxyimino-3,4,5-trihydroxy-2-methoxyhexylamide], the IC50 was 18.3 µM.

For `CO[C@@H](C(=O)NC1CCCCNC1=O)[C@H](O)[C@@H](O)[C@H](O)/C=C/C(C)C` (some centres unmarked) [Bengamide E, reference compound], the IC50 turned out to be 7 µM.

For `CO[C@@H](C(=O)NC1Cc2ccccc2CN(C)C1=O)[C@H](O)[C@@H](O)[C@H](O)/C=C/C(C)(C)C` (stereo partly drawn) [Ex 1, N-(2-Methyl-3-oxo-2,3,4,5-tetrahydro-1H-2-benzazepin-4-yl)-(E)-(2R,3R,4S,5R)-3,4,5-trihydroxy-2-methoxy-8,8-dimethylnon-6-enamide], the IC50 was 0.17 µM. Under `CO[C@@H](C(=O)N[C@H]1CCCCN(Cc2ccc(-c3ccccc3)cc2)C1=O)[C@H](O)[C@@H](O)[C@H](O)/C=C/C(C)(C)C` [Ex 2, N—[(S)-1-(biphenyl-4-ylmethyl)-2-oxoperhydroazepin-3-yl]-(E)-(2R,3R,4S,5R)-3,4,5-trihydroxy-2-methoxy-8,8-dimethylnon-6-enamide] stands 1.3 µM; under `CO[C@@H](C(=O)NC1CN(c2ccccc2)C1=O)[C@H](O)[C@@H](O)[C@H](O)/C=C/C(C)(C)C` (stereo partly drawn) [Ex 3, N-(2-Oxo-1-phenylazetidin-3-yl)-(E)-(2R,3R,4S,5R)-3,4,5-trihydroxy-2-methoxy-8,8-dimethylnon-6-enamide], 0.48 µM. For the molecule `CO[C@@H](C(=O)NC1CCNC1=O)[C@H](O)[C@@H](O)[C@H](O)/C=C/C(C)(C)C` (stereo partly drawn) [Ex 4, N-(2-oxopyrrolidin-3-yl)-(E)-(2R,3R,4S,5R)-3,4,5-trihydroxy-2-methoxy-8,8-dimethylnon-6-enamide], the IC50 worked out at 3.1 µM.

For the molecule `COC(=O)C1CC(NC(=O)[C@H](OC)[C@H](O)[C@@H](O)[C@H](O)/C=C/C(C)(C)C)C(=O)N1` (stereo partly drawn) [Ex 5, Methyl 5-oxo-4-((E)-(2R,3R,4S,5R)-3,4,5-tri-hydroxy-2-methoxy-8,8-dimethylnon-6-enoylamino)pyrrolidine-2-carboxylate], the IC50 turned out to be 26.7 µM.

In the case of `CO[C@@H](C(=O)NC1CCCNC1=O)[C@H](O)[C@@H](O)[C@H](O)/C=C/C(C)(C)C` (stereo partly drawn) [Ex 6, N-(2-oxopiperidin-3-yl)-(E)-(2R,3R,4S,5R)-3,4,5-trihydroxy-2-methoxy-8,8-dimethylnon-6-enamide], the IC50 was found to be 1.19 µM. For `CO[C@@H](C(=O)NC1Cc2ccccc2NC1=O)[C@H](O)[C@@H](O)[C@H](O)/C=C/C(C)(C)C` (stereo partly drawn) [Ex 7, N-(2-oxo-1,2,3,4-tetrahydroquinolin-3-yl)-(E)-(2R,3R,4S,5R)-3,4,5-trihydroxy-2-methoxy-8,8-dimethylnon-6-enamide], the IC50 was 1.11 µM. For `CO[C@@H](C(=O)NC1CSCCNC1=O)[C@H](O)[C@@H](O)[C@H](O)/C=C/C(C)(C)C` (stereo partly drawn) [Ex 8, N-(5-oxoperhydro-1,4-thiazepin-6-yl)-(E)-(2R,3R,4S,5R)-3,4,5-trihydroxy-2-methoxy-8,8-dimethylnon-6-enamide], the IC50 was found to be 0.83 µM. In the case of `CO[C@@H](C(=O)N[C@H]1Cc2ccccc2[C@H]2CCCCN2C1=O)[C@H](O)[C@@H](O)[C@H](O)/C=C/C(C)(C)C` [Ex 9, N-((7S,12bR)-6-oxo-1,2,3,4,6,7,8,12b-octa-hydropyrido[2,1-a][2]benzazepin-7-yl)-(E)-(2R,3R,4S,5R)-3,4,5-trihydroxy-2-methoxy-8,8-dimethylnon-6-enamide] it was 3.6 µM.
